# Assay results published in publication PMC5560747, “Computational-experimental approach to drug-target interaction mapping: A case study on kinase inhibitors” (PLoS Computational Biology, 2017).
# Tests used:
# RPS6KB1 [1] = biological target: T1, RPS6KB1 (Homo sapiens, UniProt P23443); experiment: ADP-Glo Kinase Assay, tivozanib off-target testing; type: biochemical; details: read-out: Experimental validation pIC50 (converted)
# T1 construct: purchased SignalChem R21-10H-10
# Procedure: The kinase inhibitors were dissolved to 1X Kinase Buffer with 5% DMSO by transferring 200nL of the buffer using ECHO525 Liquid handler (Labcyte). […] The dissolved kinases and 2.5X kinase buffer controls were transferred at 400nL using ECHO525. […] The 2.5X ATP/substrate working stocks were transferred at 400nL using ECHO525.
# For the ADP detection, 1 μl ADP-Glo reagent was dispensed (Thermo Scientific Multidrop Combi nL). […] Next, 2 μl kinase detection reagent was dispensed with Thermo Scientific Multidrop Combi nL.
# Kinase assay, kinase dilution and substrate buffers were as indicated by the manufacturer (Promega). The assays were performed in the same way as with the kinases from the Kinase Selectivity Profiling System + ADP-Glo Assay kits (see previous section). All the assays were done in three individual experiments, each having three replicates.
# IC50 values from all the experiments were obtained with GraphPad Prism 7 (GraphPad Software, Inc. California, USA) using inhibitor vs. response—variable slope (four parameters) analysis. […] X-axis scale was set to log10.
# RPS6KB1 [2] = biological target: T1, RPS6KB1; parameters: method as in Gao et al. [42]; details: ref Gao et al. [42], cited from earlier work
# RET = test system: RET; parameters: method as in Gao et al. [42]; details: ref Gao et al. [42], cited from earlier work
# LYN B = LYN B (Homo sapiens, UniProt P07948); parameters: method as in Gao et al. [42]; details: ref Gao et al. [42], cited from earlier work
# TRKB = test system: TRKB; parameters: method as in Gao et al. [42]; details: ref Gao et al. [42], cited from earlier work
# HIPK2 = test system: HIPK2; parameters: method as in Gao et al. [42]; details: ref Gao et al. [42], cited from earlier work
# RPS6KA5 = test system: RPS6KA5; parameters: method as in Gao et al. [42]; details: ref Gao et al. [42], cited from earlier work
# PYK2 = PYK2 (Homo sapiens, UniProt Q14289); parameters: method as in Gao et al. [42]; details: ref Gao et al. [42], cited from earlier work
# PRKX = test system: PRKX; parameters: method as in Gao et al. [42]; details: ref Gao et al. [42], cited from earlier work
# TAOK1 = test system: TAOK1; parameters: method as in Gao et al. [42]; details: ref Gao et al. [42], cited from earlier work
# DAPK3 = test system: DAPK3; parameters: method as in Gao et al. [42]; details: ref Gao et al. [42], cited from earlier work
# IGF1R = IGF1R (Homo sapiens, UniProt P08069); parameters: method as in Gao et al. [42]; details: ref Gao et al. [42]; cited from earlier work
# GSK3A = test system: GSK3A; parameters: method as in Gao et al. [42]; details: ref Gao et al. [42], cited from earlier work
# ROCK1 = test system: ROCK1; parameters: method as in Gao et al. [42]; details: ref Gao et al. [42], cited from earlier work
# PKN2 = test system: PKN2; parameters: method as in Gao et al. [42]; details: ref Gao et al. [42], cited from earlier work
# RSK2 = test system: RSK2; parameters: method as in Gao et al. [42]; details: ref Gao et al. [42], cited from earlier work
# PKCg = test system: PKCg; parameters: method as in Gao et al. [42]; details: ref Gao et al. [42], cited from earlier work
# TYRO3 = test system: TYRO3; parameters: method as in Gao et al. [42]; details: ref Gao et al. [42], cited from earlier work
# PAK4 = test system: PAK4; parameters: method as in Gao et al. [42]; details: ref Gao et al. [42], cited from earlier work
# CHK1 = test system: CHK1; parameters: method as in Gao et al. [42]; details: ref Gao et al. [42], cited from earlier work
# KIT = test system: KIT; parameters: method as in Gao et al. [42]; details: ref Gao et al. [42], cited from earlier work
# JAK3 = JAK3 (Homo sapiens, UniProt P52333); parameters: method as in Gao et al. [42]; details: ref Gao et al. [42], cited from earlier work
# BTK = BTK (Homo sapiens, UniProt Q06187); parameters: method as in Gao et al. [42]; details: ref Gao et al. [42], cited from earlier work
# EEF2K = test system: EEF2K; parameters: method as in Gao et al. [42]; details: ref Gao et al. [42], cited from earlier work
# EPHA2 = test system: EPHA2; parameters: method as in Gao et al. [42]; details: ref Gao et al. [42], cited from earlier work
# ERK6 = test system: ERK6; parameters: method as in Gao et al. [42]; details: ref Gao et al. [42], cited from earlier work
# NEK2 = test system: NEK2; parameters: method as in Gao et al. [42]; details: ref Gao et al. [42], cited from earlier work
# CAMK2B = test system: CAMK2B; parameters: method as in Gao et al. [42]; details: ref Gao et al. [42], cited from earlier work
# SRPK1 = test system: SRPK1; parameters: method as in Gao et al. [42]; details: ref Gao et al. [42], cited from earlier work
# MAPKAPK2 = test system: MAPKAPK2; parameters: method as in Gao et al. [42]; details: ref Gao et al. [42], cited from earlier work
# CSNK1G3 = test system: CSNK1G3; parameters: method as in Gao et al. [42]; details: ref Gao et al. [42], cited from earlier work
# AKT3 = test system: AKT3; parameters: method as in Gao et al. [42]; details: ref Gao et al. [42], cited from earlier work
# MAPKAPK3 = test system: MAPKAPK3; parameters: method as in Gao et al. [42]; details: ref Gao et al. [42], cited from earlier work
# T1 sequence (P23443 whole entry): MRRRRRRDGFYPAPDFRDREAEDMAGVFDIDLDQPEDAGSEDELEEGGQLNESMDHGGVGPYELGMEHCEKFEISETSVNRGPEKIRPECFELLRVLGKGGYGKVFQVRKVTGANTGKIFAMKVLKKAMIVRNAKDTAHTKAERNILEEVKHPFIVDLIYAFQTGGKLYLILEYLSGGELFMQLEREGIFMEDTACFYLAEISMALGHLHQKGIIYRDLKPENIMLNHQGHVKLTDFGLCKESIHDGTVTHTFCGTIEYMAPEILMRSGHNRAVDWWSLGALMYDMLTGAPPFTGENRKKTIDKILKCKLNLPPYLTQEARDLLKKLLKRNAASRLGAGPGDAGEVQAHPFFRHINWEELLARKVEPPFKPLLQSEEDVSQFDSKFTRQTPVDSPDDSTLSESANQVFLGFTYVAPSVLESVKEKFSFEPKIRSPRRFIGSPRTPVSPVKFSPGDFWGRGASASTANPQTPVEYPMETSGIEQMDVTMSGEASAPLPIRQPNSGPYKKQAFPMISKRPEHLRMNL
# Chain of PYK2 (Q14289 whole entry): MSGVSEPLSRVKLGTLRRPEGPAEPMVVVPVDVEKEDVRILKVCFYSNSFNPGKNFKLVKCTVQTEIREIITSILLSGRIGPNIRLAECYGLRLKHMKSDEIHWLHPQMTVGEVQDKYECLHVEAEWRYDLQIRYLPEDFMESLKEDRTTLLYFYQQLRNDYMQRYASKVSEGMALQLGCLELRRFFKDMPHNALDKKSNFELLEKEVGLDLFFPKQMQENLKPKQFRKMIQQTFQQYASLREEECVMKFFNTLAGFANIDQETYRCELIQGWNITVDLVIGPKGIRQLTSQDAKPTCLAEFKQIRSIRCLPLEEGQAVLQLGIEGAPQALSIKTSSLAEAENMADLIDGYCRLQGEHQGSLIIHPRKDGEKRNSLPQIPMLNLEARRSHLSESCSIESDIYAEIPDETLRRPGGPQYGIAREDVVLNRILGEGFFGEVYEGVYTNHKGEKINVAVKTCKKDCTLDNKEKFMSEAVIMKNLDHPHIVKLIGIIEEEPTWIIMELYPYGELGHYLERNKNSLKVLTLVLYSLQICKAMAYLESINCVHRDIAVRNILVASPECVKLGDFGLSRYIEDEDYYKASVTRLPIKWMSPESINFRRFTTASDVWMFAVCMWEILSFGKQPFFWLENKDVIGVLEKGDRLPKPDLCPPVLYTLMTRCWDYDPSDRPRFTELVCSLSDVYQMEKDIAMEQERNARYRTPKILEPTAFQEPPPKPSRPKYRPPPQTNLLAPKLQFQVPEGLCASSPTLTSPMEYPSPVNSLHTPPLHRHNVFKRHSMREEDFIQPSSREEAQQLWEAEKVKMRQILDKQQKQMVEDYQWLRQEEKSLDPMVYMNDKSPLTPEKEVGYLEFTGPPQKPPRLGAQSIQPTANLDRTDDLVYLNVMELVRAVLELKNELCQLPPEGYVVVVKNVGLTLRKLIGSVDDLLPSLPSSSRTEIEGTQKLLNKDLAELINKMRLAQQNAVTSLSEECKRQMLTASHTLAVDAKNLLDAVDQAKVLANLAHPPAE
# Chain of BTK (Q06187 whole entry): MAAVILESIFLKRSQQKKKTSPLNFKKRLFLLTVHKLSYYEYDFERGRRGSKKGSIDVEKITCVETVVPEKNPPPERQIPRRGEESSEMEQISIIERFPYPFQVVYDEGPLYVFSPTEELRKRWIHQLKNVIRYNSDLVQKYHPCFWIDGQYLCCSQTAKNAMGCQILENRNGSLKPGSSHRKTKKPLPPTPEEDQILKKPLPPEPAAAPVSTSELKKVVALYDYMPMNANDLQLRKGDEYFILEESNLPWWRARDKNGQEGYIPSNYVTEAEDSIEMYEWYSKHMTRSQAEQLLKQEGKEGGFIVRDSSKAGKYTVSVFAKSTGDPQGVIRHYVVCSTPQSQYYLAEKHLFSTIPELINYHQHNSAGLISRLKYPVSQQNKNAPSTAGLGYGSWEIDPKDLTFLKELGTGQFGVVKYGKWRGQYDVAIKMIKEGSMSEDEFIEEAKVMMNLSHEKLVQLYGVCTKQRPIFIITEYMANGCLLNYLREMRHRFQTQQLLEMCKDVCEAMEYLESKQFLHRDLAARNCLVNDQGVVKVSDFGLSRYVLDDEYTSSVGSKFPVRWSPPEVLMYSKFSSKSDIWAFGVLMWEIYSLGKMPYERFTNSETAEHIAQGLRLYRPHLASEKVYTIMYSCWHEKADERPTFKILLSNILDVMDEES
# Chain of JAK3 (P52333 whole entry): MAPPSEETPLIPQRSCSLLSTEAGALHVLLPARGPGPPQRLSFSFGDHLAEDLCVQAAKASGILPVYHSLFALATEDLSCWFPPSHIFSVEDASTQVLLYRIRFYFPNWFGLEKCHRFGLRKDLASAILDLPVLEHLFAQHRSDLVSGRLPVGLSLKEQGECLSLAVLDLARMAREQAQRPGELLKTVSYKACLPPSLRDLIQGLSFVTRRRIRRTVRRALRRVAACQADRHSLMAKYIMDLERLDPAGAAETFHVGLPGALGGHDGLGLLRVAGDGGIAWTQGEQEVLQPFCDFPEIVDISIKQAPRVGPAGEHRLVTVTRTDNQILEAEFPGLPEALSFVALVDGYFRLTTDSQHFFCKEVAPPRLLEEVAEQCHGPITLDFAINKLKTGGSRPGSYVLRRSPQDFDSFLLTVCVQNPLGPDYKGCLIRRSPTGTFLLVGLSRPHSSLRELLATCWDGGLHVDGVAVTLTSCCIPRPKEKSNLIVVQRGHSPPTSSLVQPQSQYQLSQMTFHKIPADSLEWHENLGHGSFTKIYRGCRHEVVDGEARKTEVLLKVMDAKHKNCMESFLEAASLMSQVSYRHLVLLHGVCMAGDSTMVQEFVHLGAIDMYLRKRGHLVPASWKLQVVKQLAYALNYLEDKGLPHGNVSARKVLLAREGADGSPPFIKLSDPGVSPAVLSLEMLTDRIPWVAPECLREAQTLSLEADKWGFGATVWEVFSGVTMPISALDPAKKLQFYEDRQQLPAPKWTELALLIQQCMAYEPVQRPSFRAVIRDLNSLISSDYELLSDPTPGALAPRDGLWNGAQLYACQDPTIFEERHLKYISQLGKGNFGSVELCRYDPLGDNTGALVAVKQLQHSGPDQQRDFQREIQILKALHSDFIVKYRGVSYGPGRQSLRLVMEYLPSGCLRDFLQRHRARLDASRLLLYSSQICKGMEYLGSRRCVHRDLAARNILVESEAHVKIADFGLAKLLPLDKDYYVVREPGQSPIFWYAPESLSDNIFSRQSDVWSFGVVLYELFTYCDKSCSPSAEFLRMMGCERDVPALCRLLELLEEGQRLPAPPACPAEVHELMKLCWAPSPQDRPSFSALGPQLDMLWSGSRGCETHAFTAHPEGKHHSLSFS
# Chain of LYN B (P07948 1-491 isoform P07948-2): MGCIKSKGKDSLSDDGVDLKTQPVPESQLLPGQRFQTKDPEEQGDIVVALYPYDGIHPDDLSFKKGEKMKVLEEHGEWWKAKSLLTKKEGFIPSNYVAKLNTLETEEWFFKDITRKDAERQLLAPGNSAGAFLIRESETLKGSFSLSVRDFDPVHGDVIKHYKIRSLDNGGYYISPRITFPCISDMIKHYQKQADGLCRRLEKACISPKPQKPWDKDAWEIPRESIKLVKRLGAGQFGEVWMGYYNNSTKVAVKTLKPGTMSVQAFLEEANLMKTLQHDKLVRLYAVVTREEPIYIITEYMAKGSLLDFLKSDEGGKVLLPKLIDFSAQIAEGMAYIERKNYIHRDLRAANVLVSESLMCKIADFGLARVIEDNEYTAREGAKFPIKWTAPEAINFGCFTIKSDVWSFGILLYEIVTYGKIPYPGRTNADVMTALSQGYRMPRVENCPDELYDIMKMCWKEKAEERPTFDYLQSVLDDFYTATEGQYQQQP
compound,measurement,setting,value
"COc1cc2nccc(Oc3ccc(NC(=O)Nc4cc(C)on4)c(Cl)c3)c2cc1OC [TIVOZANIB, Tivozanib]",IC50,RPS6KB1 [1],> 12.5 µM
same,Gao et al. % of activity remaining at 1 µM,RPS6KB1 [2]; 1 µM,76%
same,Gao et al. % of activity remaining at 10 µM,RPS6KB1 [2]; 10 µM,53%
same,Gao et al. % of activity remaining at 1 µM,RET; 1 µM,0%
same,Gao et al. % of activity remaining at 10 µM,RET; 10 µM,-1%
same,Gao et al. % of activity remaining at 1 µM,LYN B; 1 µM,-1%
same,Gao et al. % of activity remaining at 10 µM,LYN B; 10 µM,2%
same,Gao et al. % of activity remaining at 1 µM,TRKB; 1 µM,42%
same,Gao et al. % of activity remaining at 10 µM,TRKB; 10 µM,-10%
same,Gao et al. % of activity remaining at 1 µM,HIPK2; 1 µM,94%
same,Gao et al. % of activity remaining at 10 µM,HIPK2; 10 µM,81%
same,Gao et al. % of activity remaining at 1 µM,RPS6KA5; 1 µM,107%
same,Gao et al. % of activity remaining at 10 µM,RPS6KA5; 10 µM,80%
same,Gao et al. % of activity remaining at 1 µM,PYK2; 1 µM,34%
same,Gao et al. % of activity remaining at 10 µM,PYK2; 10 µM,8%
same,Gao et al. % of activity remaining at 1 µM,PRKX; 1 µM,97%
same,Gao et al. % of activity remaining at 10 µM,PRKX; 10 µM,59%
same,Gao et al. % of activity remaining at 1 µM,TAOK1; 1 µM,91%
same,Gao et al. % of activity remaining at 10 µM,TAOK1; 10 µM,52%
same,Gao et al. % of activity remaining at 1 µM,DAPK3; 1 µM,82%
same,Gao et al. % of activity remaining at 10 µM,DAPK3; 10 µM,90%
same,Gao et al. % of activity remaining at 1 µM,IGF1R,135%
same,Gao et al. % of activity remaining at 1 µM,GSK3A; 1 µM,107%
same,Gao et al. % of activity remaining at 10 µM,GSK3A; 10 µM,123%
same,Gao et al. % of activity remaining at 1 µM,ROCK1; 1 µM,113%
same,Gao et al. % of activity remaining at 10 µM,ROCK1; 10 µM,112%
same,Gao et al. % of activity remaining at 1 µM,PKN2; 1 µM,97%
same,Gao et al. % of activity remaining at 10 µM,PKN2; 10 µM,108%
same,Gao et al. % of activity remaining at 1 µM,RSK2; 1 µM,60%
same,Gao et al. % of activity remaining at 10 µM,RSK2; 10 µM,35%
same,Gao et al. % of activity remaining at 1 µM,PKCg; 1 µM,109%
same,Gao et al. % of activity remaining at 10 µM,PKCg; 10 µM,110%
same,Gao et al. % of activity remaining at 1 µM,TYRO3; 1 µM,10%
same,Gao et al. % of activity remaining at 10 µM,TYRO3; 10 µM,8%
same,Gao et al. % of activity remaining at 1 µM,PAK4; 1 µM,99%
same,Gao et al. % of activity remaining at 10 µM,PAK4; 10 µM,92%
same,Gao et al. % of activity remaining at 1 µM,CHK1; 1 µM,89%
same,Gao et al. % of activity remaining at 10 µM,CHK1; 10 µM,100%
same,Gao et al. % of activity remaining at 1 µM,KIT; 1 µM,3%
same,Gao et al. % of activity remaining at 10 µM,KIT; 10 µM,0%
same,Gao et al. % of activity remaining at 1 µM,JAK3; 1 µM,100%
same,Gao et al. % of activity remaining at 10 µM,JAK3; 10 µM,48%
same,Gao et al. % of activity remaining at 1 µM,BTK; 1 µM,50%
same,Gao et al. % of activity remaining at 10 µM,BTK; 10 µM,10%
same,Gao et al. % of activity remaining at 1 µM,EEF2K; 1 µM,84%
same,Gao et al. % of activity remaining at 10 µM,EEF2K; 10 µM,116%
same,Gao et al. % of activity remaining at 1 µM,EPHA2; 1 µM,-3%
same,Gao et al. % of activity remaining at 10 µM,EPHA2; 10 µM,-3%
same,Gao et al. % of activity remaining at 1 µM,ERK6; 1 µM,100%
same,Gao et al. % of activity remaining at 10 µM,ERK6; 10 µM,94%
same,Gao et al. % of activity remaining at 1 µM,NEK2; 1 µM,88%
same,Gao et al. % of activity remaining at 10 µM,NEK2; 10 µM,100%
same,Gao et al. % of activity remaining at 1 µM,CAMK2B; 1 µM,97%
same,Gao et al. % of activity remaining at 10 µM,CAMK2B; 10 µM,69%
same,Gao et al. % of activity remaining at 1 µM,SRPK1; 1 µM,98%
same,Gao et al. % of activity remaining at 10 µM,SRPK1; 10 µM,90%
same,Gao et al. % of activity remaining at 1 µM,MAPKAPK2; 1 µM,85%
same,Gao et al. % of activity remaining at 10 µM,MAPKAPK2; 10 µM,100%
same,Gao et al. % of activity remaining at 1 µM,CSNK1G3; 1 µM,104%
same,Gao et al. % of activity remaining at 10 µM,CSNK1G3; 10 µM,93%
same,Gao et al. % of activity remaining at 1 µM,AKT3; 1 µM,95%
same,Gao et al. % of activity remaining at 10 µM,AKT3; 10 µM,89%
same,Gao et al. % of activity remaining at 1 µM,MAPKAPK3; 1 µM,116%
same,Gao et al. % of activity remaining at 10 µM,MAPKAPK3; 10 µM,67%
